Experimental findings from PubChem BioAssay (NCI) are described below.

Where “and” joins values, the source holds several entries; their conditions need not be identical. Equal values may be shown once.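 These data come from cells grown in 96-well plates and exposed to compound for 48 hours at five concentrations. The concentration for 50% growth inhibition is given as GI50. TGI: total growth inhibition.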

Among the test systems are DMS 273 small cell lung; NCI-H226 lung; SNB-78 CNS; SW-620 colon; KM20L2 colon; COLO 205 colon; BT-549 breast; NCI/ADR-RES ovarian; PC-3 prostate.
What all share (test): NCI tumour cell line growth inhibition, 48 h

On to `O=C(NCC#CCO)C(F)(F)F`, for which the TGI with DMS 273 small cell lung, in the experiment on NCI-H226 lung, in the experiment with SNB-78 CNS and in the experiment on SW-620 colon was greater than 100 µM in each case.

For the compound `CCOC(=O)C1=C(C)N(NC(=O)c2ccccc2)C2(O)CCCC12C(=O)OCC` (stereo not drawn), the TGI with DMS 273 small cell lung, in the experiment with KM20L2 colon, in the experiment on NCI-H226 lung and in the experiment with SW-620 colon was greater than 100 µM in each case.

Consider `Cc1cc(C)n(-c2c(O)ccc(O)c2-n2nc(C)cc2C)n1`, for which the TGI in the experiment with COLO 205 colon, in the experiment with DMS 273 small cell lung, in the experiment on KM20L2 colon, with SNB-78 CNS and with SW-620 colon was greater than 100 µM throughout.

With `COC(=O)C1=CC2OC1(C)C1(CC1)C2=O` (stereo not drawn), the TGI in the experiment on COLO 205 colon turned out to be 33.5 µM; in the experiment with KM20L2 colon, 36.6 µM; in the experiment on NCI-H226 lung, 43.5 µM; in the experiment on SW-620 colon, 34 µM.

Consider `Cc1cccc(N=C2c3cc([N+](=O)[O-])ccc3-c3c2cc([N+](=O)[O-])cc3[N+](=O)[O-])c1`, for which the GI50 is 3.45 µM with BT-549 breast; 3.34 µM in the experiment with COLO 205 colon; 5.08 µM in the experiment on NCI-H226 lung; 12.5 µM with NCI/ADR-RES ovarian; 5.02 µM in the experiment on PC-3 prostate; 2.01 µM in the experiment on SW-620 colon. In addition, the TGI in the experiment on BT-549 breast is 11.2 µM; in the experiment with COLO 205 colon it was 17.1 µM; in the experiment on NCI-H226 lung, 22.2 µM; with NCI/ADR-RES ovarian it was greater than 100 µM; in the experiment with PC-3 prostate it was 21.6 µM; with SW-620 colon, 3.76 µM.

On to `O=C(O)CCC1CCC(c2cc(F)ccc2F)(S(=O)(=O)c2ccc(Cl)cc2)CC1` (stereo not drawn), for which the GI50 in the experiment on BT-549 breast is 10.9 µM and 97.8 µM; with COLO 205 colon, 42.3 µM and > 100 µM; in the experiment with NCI-H226 lung, 41.2 µM and > 100 µM; in the experiment with NCI/ADR-RES ovarian, 25.8 µM and > 74.3 µM; in the experiment on PC-3 prostate, 75.8 µM and > 100 µM; in the experiment with SW-620 colon, 32.2 µM and > 100 µM. The TGI in the experiment on BT-549 breast is 43.1 µM and > 100 µM; with COLO 205 colon, greater than 100 µM; in the experiment with NCI-H226 lung, greater than 100 µM; in the experiment with NCI/ADR-RES ovarian, 99.7 µM and > 100 µM; with PC-3 prostate it was greater than 100 µM; in the experiment with SW-620 colon it was greater than 100 µM.

Turning to `O=C1/C(=C/C(Cl)=C/c2ccccc2)SC(=S)N1CCc1ccc(O)cc1`, the GI50 was 3.44 µM in the experiment with BT-549 breast; 2.27 µM with COLO 205 colon; 2.17 µM in the experiment with NCI-H226 lung; 2.16 µM in the experiment with NCI/ADR-RES ovarian; 2.1 µM in the experiment on PC-3 prostate; 1.43 µM in the experiment with SW-620 colon. Besides, the TGI in the experiment with BT-549 breast is greater than 100 µM; with COLO 205 colon, 7.69 µM; with NCI-H226 lung, 7.16 µM; in the experiment on NCI/ADR-RES ovarian it was greater than 100 µM; with PC-3 prostate it was 7.42 µM; in the experiment on SW-620 colon it was 3.9 µM.

Take `COc1ccc(F)cc1C(=O)c1cnc(NC2CCN(S(C)(=O)=O)CC2)nc1N`: the GI50 was 4.11 µM in the experiment on BT-549 breast; 1.25 µM in the experiment with COLO 205 colon; 2.56 µM in the experiment on NCI-H226 lung; 6.26 µM with NCI/ADR-RES ovarian; 2.79 µM with PC-3 prostate; 0.636 µM in the experiment on SW-620 colon. The TGI in the experiment on BT-549 breast was 14.3 µM; with COLO 205 colon, 5.22 µM; in the experiment with NCI-H226 lung, greater than 20.6 µM; with NCI/ADR-RES ovarian, greater than 25 µM; with PC-3 prostate it was 18.1 µM; in the experiment with SW-620 colon it was greater than 16.6 µM.

For the compound `O=C(Cn1ccnc1[N+](=O)[O-])NCC(F)(F)C(F)(F)F`, the GI50 with BT-549 breast, with COLO 205 colon, with NCI-H226 lung, in the experiment with NCI/ADR-RES ovarian, with PC-3 prostate and in the experiment with SW-620 colon was greater than 100 µM each time. In addition, the TGI with BT-549 breast, in the experiment with COLO 205 colon, in the experiment on NCI-H226 lung, with NCI/ADR-RES ovarian, in the experiment with PC-3 prostate and in the experiment with SW-620 colon was greater than 100 µM each time.

For `O=C(Nc1ccc(Br)c(Cl)c1)c1cc(F)ccc1O`, the GI50 in the experiment with BT-549 breast is 0.525 µM; in the experiment on COLO 205 colon, 2.75 µM; with NCI-H226 lung it was 0.651 µM; in the experiment on NCI/ADR-RES ovarian it was 1.04 µM; in the experiment on PC-3 prostate it was 1.25 µM; in the experiment with SW-620 colon, 1.2 µM. Further, the TGI with BT-549 breast is 2.7 µM; in the experiment on COLO 205 colon, 13.9 µM; with NCI-H226 lung, 2.69 µM; with NCI/ADR-RES ovarian, greater than 15.6 µM; in the experiment on PC-3 prostate, greater than 14.8 µM; in the experiment on SW-620 colon, 9.67 µM.

Consider `CC[C@H](C)C(=O)O[C@H]1CCC=C2C=C[C@H](C)C(CCC3C[C@@H](O)CC(=O)O3)[C@H]21` (stereo partly drawn), for which the GI50 is 17.2 µM in the experiment with BT-549 breast; 10.5 µM in the experiment with COLO 205 colon; 6.2 µM in the experiment on NCI-H226 lung; 2.3 µM in the experiment on NCI/ADR-RES ovarian; 1.48 µM in the experiment with PC-3 prostate; 12 µM in the experiment with SW-620 colon. The TGI was greater than 100 µM in the experiment on BT-549 breast; 36.8 µM with COLO 205 colon; 46 µM in the experiment with NCI-H226 lung; greater than 100 µM in the experiment on NCI/ADR-RES ovarian; greater than 100 µM with PC-3 prostate; greater than 100 µM in the experiment on SW-620 colon.

On to `COc1ccc(Nc2ccnc(NCCCNc3ccnc4cc(Cl)ccc34)n2)cc1`, for which the GI50 in the experiment on BT-549 breast was 1.65 µM; in the experiment on COLO 205 colon, 1.21 µM; in the experiment with NCI-H226 lung it was 1.92 µM; in the experiment with NCI/ADR-RES ovarian, 2.78 µM; in the experiment on PC-3 prostate, 1.63 µM; in the experiment on SW-620 colon it was 1.07 µM. Further, the TGI is 3.94 µM with BT-549 breast; 2.65 µM in the experiment on COLO 205 colon; 4.55 µM in the experiment with NCI-H226 lung; 10.4 µM in the experiment with NCI/ADR-RES ovarian; 11.2 µM in the experiment with PC-3 prostate; 2.56 µM in the experiment with SW-620 colon.

With `O=C(C=Nc1ccccc1C(=O)[O-])c1cccs1.O=C(C=Nc1ccccc1C(=O)[O-])c1cccs1.[Cu+2]`, the TGI with COLO 205 colon, with KM20L2 colon and in the experiment on SW-620 colon was greater than 100 µM each time.

For the compound `Clc1ccc(CO/N=C(\Cn2ccnc2)c2ccc(Cl)cc2Cl)c(Cl)c1`, the GI50 in the experiment with BT-549 breast was 1.97 µM; in the experiment on COLO 205 colon, 1.86 µM; with NCI-H226 lung it was 1.42 µM; in the experiment with NCI/ADR-RES ovarian, 1.27 µM; in the experiment with PC-3 prostate, 1.27 µM; in the experiment with SW-620 colon, 1.55 µM. Further, the TGI in the experiment on BT-549 breast came out at 3.61 µM; in the experiment on COLO 205 colon it was 3.29 µM; with NCI-H226 lung it was 3.01 µM; with NCI/ADR-RES ovarian it was 2.9 µM; in the experiment on PC-3 prostate, 2.72 µM; in the experiment with SW-620 colon, 3.2 µM.
